The source of these data is patent US11389415B2, “Methods of regulating cannabinoid receptor activity-related disorders and diseases” (The United States of America as represented by the …, priority 2012, dated 2022).

Series [1] is described as follows: MNF accumulation in vivo in C6 glioma tumors. Also on record: species or system mouse. The note with it: C6 xenograft tumors at completion of study. As to the method: Evaluation of MNF accumulation in vivo in C6 glioma tumors. The accumulation of MNF in vivo in C6 tumor xenografts in athymic mice was assessed in comparison with vehicle-treated tumor-bearing animals. The frozen tumor samples were thawed, and then homogenized. The concentration of MNF and its metabolites was determined by HPLC followed by LC-MS/MS. In brief, the assays were conducted using an Eclipse XDB-C18 guard column (4.6 mm×12.5 mm) and an Atlantis HILIC column (150×2.1 mm ID, […]). The mobile phase consisted of water containing 0.1% formic acid as component A and acetonitrile as component B. A linear gradient was run as follows: 0 minutes 95% B; 5 minutes 60% B; 6 minutes 80% B; 10 minutes 95% B at a flow rate of 1.0 ml/minute. The total run time was 15 minutes per sample. Identification and quantification of the analytes was accomplished using an API-4000 LC-MS/MS in positive electrospray ionization mode and data was acquired employing multiple reaction monitoring (MRM) and the following MRM transitions: MNF (369-200); MNF-Gluc (545-200). Tumor tissues from vehicle-injected mice were used as controls.

The target of the next series is GPR55 (Homo sapiens, UniProt Q9Y2T6). The series is described as follows: GPR55 internalization assay in hGPR55-HEK293 cells. Format: cell-based. To be noted: 1 μM pretreatment 45 minutes. As to the method:
GPR55 internalization assay. Endocytosis of GPR55 was observed following a previously described protocol with minor modifications (Henstridge et al., Br. J. Pharmacol. 160: 604-614, 2010). Briefly, hGPR55-HEK293 cells were grown on Lab-Tek II CC2 chamber slides (Thermo Scientific Nunc, Rochester, N.Y.) for 48 hours in regular media and then were serum starved for 1 hour. A preincubation with 1:1000 rabbit HA antibody (Covance, Md.) was performed in the presence of vehicle (0.1% DMSO) or 1 μM MNF in serum-free media for 45 minutes at 37° C. in the CO2 incubator. Cells were then washed extensively with PBS and treated with 5 μM 01602 in serum-free media for 20 minutes at 37° C. in the CO2 incubator. Subsequently, cells were washed three times, fixed in fresh 3.7% paraformaldehyde in PBS (10 min), and incubated with anti-rabbit Alexa Fluor 488 antibody (Molecular Probes, Eugene, Oreg.; 1:1000, 30 minutes). Cells were washed and fixed for a second time prior to permeabilization with 0.2% Triton X-100 (5 minutes). Incubation with anti-rabbit Alexa Fluor 568 antibody (Molecular Probes; 1:1000, 30 minutes) was carried out to determine the extent of internalized GPR55-HA antibody complex. […]

Series [2] can be described thus: Plasma and brain tissue concentrations after IV administration in Sprague-Dawley rats. Type of series: in vivo, rat. To be noted: for AUCinf / AUClast / Cmax / t1/2 (hr), elimination phase half life / C^0 (ng/ml), plasma concentration extrapolated to time 0 / Cl (ml/hr/kg), whole body clearance / V (l/kg), apparent volume of distribution: male Sprague-Dawley rats; for AUCinf / AUClast / Cmax / t1/2 (hr), elimination phase half life: plasma. As to the method: To determine plasma and brain tissue concentrations of MNF, the concentrations of MNF and its metabolites in plasma and brain tissue samples obtained from male Sprague-Dawley rats were determined after administration of a single IV dose of 10 mg/kg of MNF. The assays were conducted using an Eclipse XDB-C18 guard column (4.6 mm×12.5 mm) and an Atlantis HILIC column (150×2.1 mm ID, […]). The mobile phase consisted of water containing 0.1% formic acid as Component A and acetonitrile as component B. A linear gradient was run as follows: 0 minutes 95% B; 5 minutes 60% B; 6 minutes 80% B; 10 minutes 95% B at a flow rate of 1.0 ml/minutes. The total run time was 15 minutes per sample. Identification and quantification of the analytes was accomplished using an API-4000 LC-MS/MS in positive electrospray ionization mode and data was acquired employing multiple reaction monitoring (MRM) and the following MRM transitions: MNF (369-200); MNF-Gluc (545-200).
Ten mg/kg MNF was administered IV to male Sprague-Dawley rats and the plasma concentrations of MNF were determined between 10 minutes and 24 hours post administration with the levels measured in 3 animals per time point. In the same study, the concentration of MNF in brain tissue was measured between 10 and 60 minutes after administration with 3 animals per time point. The MNF concentration in brain tissue was 200 ng/mg tissue at 10 minutes after administration and peaked at 30 minutes at 800 ng/mg tissue. The relative distribution between the concentration of MNF in blood (measured as ng/ml) and brain tissue (measured as ng/mg tissue) was 0.2 at 10 minutes and 1.0 at 30 minutes and 60 minutes reflecting an equivalent distribution between both the central and peripheral body compartments. […] Further, the apparent volume of distribution (V) is high indicating extensive tissue distribution.

Series [3] can be described thus: In vitro metabolic stability, human liver microsomes. Type of series: in vitro ADME. To be noted: 37° C. As to the method:
FIG. 10 presents the data from the in vitro metabolic stability study in which MNF was incubated (in duplicate) with active and heat-inactivated human (HLM) and rat (RLM) liver microsomes and cofactors at 37° C. Aliquots were removed at 0, 15, 30 and 60 minutes and the amount of test compound (MNF) remaining at each time point was determined by LC-MS/MS.

Where [4] appears, read: 10 mg/kg IV, individual rat, 10 mg/kg.

The structures appear in SMILES notation. Where “and” joins values, the source holds several entries; their conditions need not be identical. Identical values can stand only once.

GPR55, sequence (Q9Y2T6 whole entry): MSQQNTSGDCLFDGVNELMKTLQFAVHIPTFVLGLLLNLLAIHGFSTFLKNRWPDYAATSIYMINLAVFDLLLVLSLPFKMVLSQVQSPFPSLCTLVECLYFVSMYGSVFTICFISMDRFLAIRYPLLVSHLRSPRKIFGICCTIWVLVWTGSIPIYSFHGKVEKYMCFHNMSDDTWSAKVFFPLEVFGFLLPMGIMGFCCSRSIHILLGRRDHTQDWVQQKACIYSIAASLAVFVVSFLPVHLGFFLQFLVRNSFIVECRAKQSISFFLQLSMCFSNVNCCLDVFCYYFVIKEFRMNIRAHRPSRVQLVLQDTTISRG

By Cmax is commonly meant the highest concentration seen after dosing. As to `COc1ccc(C[C@@H](C)NC[C@H](O)c2cc(O)cc(O)c2)c2ccccc12` [(R,R′)-MNF, (R,R′)-4′-methoxy-1-naphthylfenoterol], the “tissue concentration of MNF in tumor” value in series [1] (cohort 1, n=9) is 141.0±52.5 ng/ml/g tissue. The “tissue concentration of MNF in tumor” value in series [1] (cohort 2, n=7) came to 214.4±65.5 ng/ml/g tissue. At GPR55, the “effect on O-1602-induced GPR55 internalization” value was “blocked by pretreatment with MNF”. Also, in series [2] (10 mg/kg IV, Mean), the “AUCinf” value turned out to be 4378.0 ng·h/mL; the “AUClast” value is 3519.3 ng·h/mL; the “Cmax” value was 1823.0 ng/mL; the “t1/2 (hr), elimination phase half life” value was 13.8 h. Besides, in series [2] (10 mg/kg IV, Mean), the “C^0 (ng/ml), plasma concentration extrapolated to time 0” value is 3168.5 ng/mL; the “Cl (ml/hr/kg), whole body clearance” value was 2339.1 mL/h/kg; the “V (l/kg), apparent volume of distribution” value was 45.1 L/kg. In series [2] (setting [4]), the “AUCinf” value was 4103.6 ng·h/mL and 5335.2 ng·h/mL and 3695.2 ng·h/mL; the “AUClast” value is 3582.2 ng·h/mL and 4070.7 ng·h/mL and 2905.1 ng·h/mL; the “Cmax” value was 1780.7 ng/mL and 2304.9 ng/mL and 1383.4 ng/mL; the “t1/2 (hr), elimination phase half life” value was 9.8 h and 18.6 h and 13.0 h. Further, in series [2] (setting [4]), the “C^0 (ng/ml), plasma concentration extrapolated to time 0” value was 3033.4 ng/mL and 4131.4 ng/mL and 2340.7 ng/mL; the “Cl (ml/hr/kg), whole body clearance” value was 2436.9 mL/h/kg and 1874.4 mL/h/kg and 2706.2 mL/h/kg; the “V (l/kg), apparent volume of distribution” value is 34.3 L/kg and 50.4 L/kg and 50.6 L/kg. In addition, the “MNF concentration in brain tissue” value in series [2] (rats, 10 mg/kg IV, 10 minutes after administration) was 200 ng/mg tissue. Moreover, the “MNF concentration in brain tissue (peak)” value in series [2] (rats, 10 mg/kg IV, 30 minutes after administration) was 800 ng/mg tissue. Besides, the “passage through the blood brain barrier” value in series [2] (rats, IV) is on record as “capable of passing through the blood brain barrier”. Further, the “stability under the incubation conditions” value in series [3] (heat-inactivated microsome controls) was “somewhat unstable under the incubation conditions”. Further, the “metabolic stability, MNF levels” value in series [3] (human liver microsomes and cofactors, 0-60 minutes) is listed as “greater decrease in MNF levels”.
